Assay results: paper PMC8222254, “Self-assembly of an anion receptor with metal-dependent kinase inhibition and potent in vitro anti-cancer properties” (Nature Communications, 2021)
“And” between values parts separate entries of the source, which are not always exact repeats. Equal values may be shown once. Read-outs that look alike come from different tables or passages of the source.

Tests used:
Assay in all cases: Chemosensitivity, 96 h continuous exposure, MTT assay
Assay type in all cases: cell-based, human
HCT116 p53+/+ = details: for SI (ARPE19): mean IC50 ARPE-19 / mean IC50 HCT116 p53+/+; for Selectivity index (ARPE19): IC50 ARPE-19 / IC50 HCT116 p53+/+
From the text: (§1) All cell lines were purchased from and maintained as monolayers as described by the American Type Culture Collection with the exception of the p53^+/+ and p53^−/− isogenic clones of HCT116 human colorectal adenocarcinoma cells which were a kind gift from Professor Bert Vogelstein[54]. GBM1 cells were established from a primary GBM tumour by Heiko Wurdak and colleagues[32],[33]. Non-cancerous adult brain neural progenitor (NP1) cells were derived from a patient undergoing surgery to treat epilepsy[32],[33]. Cell culture and growth media for NP1 and GBM1 cells were as described[32],[33]. The response of cells following a continuous 96-h exposure to test compounds and platinates was determined using the MTT assay. Potency was recorded as the IC50 and the selectivity index (SI) was defined as the ratio of IC50 values for non-cancer to cancer cell lines with values >1 representing selectivity for cancer cells as opposed to non-cancer cells.
(§2) All cell lines used were maintained at low passage in antibiotic-free media. HT29, DLD-1, HCT116 p53^+/+ and HCT116 p53^−/− are all colorectal adenocarcinoma cell lines derived from different individuals and harbour different combinations of oncogenic lesions (except for the HCT116 isogenic cancer cell clones that are genetically identical except for p53 status). PSN-1, BxPC-3 and MiaPaCa2 are pancreatic carcinoma cell lines and A549 and H460 are lung carcinoma cell lines. HT29, DLD-1, PSN-1, BxPC-3, A549 and H460 cell lines were cultured in RPMI-1640 growth media (Sigma) containing 2 mM L-glutamine, 1 mM sodium pyruvate and 10% foetal bovine serum (FBS). HCT116 (p53^+/+ and p53^−/−) and MiaPaCa2 cell lines were cultured in Dulbecco’s Modified Eagle’s Medium (Sigma), 2 mM L-glutamine and 10% FBS. The ARPE-19 retinal epithelial non-cancer cell line was cultured in DMEM/F12 media (Gibco), 2 mM L-glutamine, 1 mM sodium pyruvate and 10% FBS. The MCF10A non-cancerous human breast epithelial cell line was cultured in Minimal Essential Media Eagle (Sigma), 2 mM L-glutamine, 1 mM sodium pyruvate, 10% FBS and 1x non-essential amino acids (NEAA). NP1 and GBM1 cells were cultured on plasticware coated with poly-L-ornithine (5 µg/ml) and laminin (2.4 µg/ml)[32],[33]. NP1 cells were grown in DMEM/F12 media (Gibco) supplemented with 5% FBS, 20 ng/ml hFGF, 20 ng/ml rhEGF, 0.5x B-27 supplement (Gibco), 0.5x N-2 supplement (Gibco) and 1x GLUTAMAX (Gibco). GBM1 cells were cultured in Neurobasal media (Gibco) supplemented with 40 ng/ml hFGF, 40 ng/ml rhEGF, 0.5x B-27 supplement (Gibco) and 0.5x N-2 supplement (Gibco).
(§3) [L2(Metal)3]^6+ and all the other self-assembling complexes were freshly formed by adding DMSO to individual components and mixing together by pipetting. These were then further diluted in cell culture media such that the final DMSO concentration that cells were exposed to was 0.2% (vehicle control). Cisplatin, oxaliplatin and carboplatin were dissolved in phosphate buffered saline. Cell lines were seeded into 96 well plates at 2 × 10^3 cells per well and incubated overnight at 37 °C. GBM1 cancer stem-like cells were seeded at 3 × 10^3 cells per well and NP1 neural progenitors were seeded at 1.5 × 10^3 cells per well. The following day, media was removed and replaced with fresh media containing test compounds at a range of concentrations. Cells were incubated with test compounds for a further 96 h after which the media was removed and replaced with fresh media (200 μl/well). MTT was added (20 μl at 5 mg/ml) and cells were incubated for a further 4 h. Media and MTT were removed and formazan crystals were dissolved in 150 μl of DMSO and the absorbance of the resulting solution determined at 540 nm. Dose response curves were constructed, and the concentration required to reduce cell growth by 50% (IC50) determined.

ARPE-19 non-cancer cells = system: ARPE-19 non-cancer cells
From the text: as §1, §2, §3

HCT116 p53-/- = details: for SI (ARPE19): mean IC50 ARPE-19 / mean IC50 HCT116 p53-/-; for Selectivity index (ARPE19): IC50 ARPE-19 / IC50 HCT116 p53-/-
From the text: as §1, §2, §3

MiaPaCa2 = details: for IC50: MiaPaCa2, 96 h, MTT; for SI (ARPE19): mean IC50 ARPE-19 / mean IC50 MiaPaCa2
From the text: as §1, §2, §3

[1] = HCT116 p53+/+, 96 h, MTT, individual run, read-out: IC50 values for each replicate
[2] = HCT116 p53+/+, 96 h, MTT, mean of at least 3 independent experiments, read-out: Mean IC50
[3] = ARPE-19, 96 h, MTT, individual run, read-out: IC50 values for each replicate
[4] = ARPE-19, 96 h, MTT, mean of at least 3 independent experiments, read-out: Mean IC50
[5] = HCT116 p53-/-, 96 h, MTT, individual run, read-out: IC50 values for each replicate
[6] = HCT116 p53-/-, 96 h, MTT, mean of at least 3 independent experiments, read-out: Mean IC50
[7] = individual run, read-out: IC50 values for each replicate
[8] = mean of at least 3 independent experiments, read-out: Mean IC50
[9] = HCT116 p53+/+, individual replicate experiments, read-out: IC50 values
[10] = ARPE19, individual replicate experiments, read-out: IC50 values
[11] = HCT116 p53-/-, individual replicate experiments, read-out: IC50 values
[12] = HCT116 p53+/+, read-out: Mean IC50 values
[13] = ARPE-19 non-cancer, read-out: Mean IC50 values
[14] = HCT116 p53-/-, read-out: Mean IC50 values

| Structure (SMILES) | IC50 (HCT116 p53+/+; [1]) | IC50 (HCT116 p53+/+; [2]) | SI (ARPE19) (HCT116 p53+/+) | IC50 (ARPE-19 non-cancer cells; [3]) | IC50 (ARPE-19 non-cancer cells; [4]) | IC50 (HCT116 p53-/-; [5]) | IC50 (HCT116 p53-/-; [6]) | SI (ARPE19) (HCT116 p53-/-) | IC50 (MiaPaCa2; [7]) | IC50 (MiaPaCa2; [8]) | SI (ARPE19) (MiaPaCa2) | IC50 (HCT116 p53+/+; [9]) | Selectivity index (ARPE19) (HCT116 p53+/+) | IC50 (ARPE-19 non-cancer cells; [10]) | IC50 (HCT116 p53-/-; [11]) | Selectivity index (ARPE19) (HCT116 p53-/-) | IC50 (HCT116 p53+/+; [12]) | IC50 (ARPE-19 non-cancer cells; [13]) | IC50 (HCT116 p53-/-; [14]) | further results |
| --- | --- | --- | --- | --- | --- | --- | --- | --- | --- | --- | --- | --- | --- | --- | --- | --- | --- | --- | --- | --- |
| N.N.O=C([O-])C1(C(=O)[O-])CCC1.[Pt+2] [Carboplatin, carboplatin, reference compound] | 43.3 µM and 21 µM and 32.9 µM | 32.4 µM | 2.401 | 87.6 µM and 79 µM and 66.6 µM | 77.7 µM | 45.8 µM and 28.2 µM and 33.1 µM | 35.7 µM | 2.177 | 30.3 µM and 44.7 µM and 31.8 µM | 35.6 µM | 2.184 |  |  |  |  |  |  |  |  |  |
| N.N.[Cl][Pt][Cl] [Cisplatin, cisplatin, reference compound] | 2.84 µM and 3.35 µM and 3.58 µM | 3.26 µM | 1.966 | 6.07 µM and 7.48 µM and 5.69 µM | 6.41 µM | 7.14 µM and 7.16 µM and 8.27 µM | 7.52 µM | 0.852 | 3.69 µM and 2.84 µM and 4.32 µM | 3.62 µM | 1.771 |  |  |  |  |  |  |  |  |  |
| c1ccc(-c2csc(NCCN(CCNc3nc(-c4ccccc4)cs3)CCNc3nc(-c4ccccc4)cs3)n2)cc1 [L] |  |  |  |  |  |  |  |  |  |  |  | 0.173 µM and 0.524 µM and 0.141 µM | 19.369 and 19.36 | 4.96 µM and 6.38 µM | 0.074 µM and 0.081 µM | 77.506 |  |  |  | IC50 (HCT116 p53+/+; Homo sapiens, HCT-116, HCT116 p53+/+, read-out: Mean IC50 values): 0.279 µM; IC50 (ARPE-19 non-cancer cells; Homo sapiens, ARPE-19, ARPE19, individual replicate experiments, read-out: IC50 values): 4.89 µM; IC50 (ARPE-19 non-cancer cells; Homo sapiens, ARPE-19, ARPE-19 non-cancer, read-out: Mean IC50 values): 5.41 µM; IC50 (HCT116 p53-/-; Homo sapiens, HCT-116, HCT116 p53-/-, individual replicate experiments, read-out: IC50 values): 0.054 µM; IC50 (HCT116 p53-/-; Homo sapiens, HCT-116, HCT116 p53-/-, read-out: Mean IC50 values): 0.07 µM |
| O=C1[O][Pt]2([NH][C@@H]3CCCC[C@H]3[NH]2)[O]C1=O [Oxaliplatin, oxaliplatin, reference compound] | 1.05 µM and 0.89 µM and 0.84 µM | 0.93 µM | 3.355 | 2.83 µM and 3.1 µM and 3.39 µM | 3.12 µM | 5.46 µM and 2.46 µM and 3.06 µM | 3.67 µM | 0.850 | 5.23 µM and 7.06 µM and 7.02 µM | 6.44 µM | 0.484 |  |  |  |  |  |  |  |  |  |
| [Cu+2].c1ccc(-c2csc(NCCN(CCNc3nc(-c4ccccn4)cs3)CCNc3nc(-c4ccccn4)cs3)n2)nc1 [[LCu]2+] |  |  |  |  |  |  |  |  |  |  |  | 0.512 µM and 0.583 µM and 0.251 µM | 13.19 | 5.93 µM and 5.5 µM and 6.33 µM | 0.049 µM and 0.045 µM and 0.083 µM | 100.09 | 0.449 µM | 5.92 µM | 0.059 µM |  |
| [Zn+2].c1ccc(-c2csc(NCCN(CCNc3nc(-c4ccccn4)cs3)CCNc3nc(-c4ccccn4)cs3)n2)nc1 [[LZn]2+] |  |  |  |  |  |  |  |  |  |  |  | 0.483 µM and 0.549 µM and 0.244 µM | 11.94 | 5.39 µM and 4.76 µM and 5.09 µM | 0.054 µM and 0.063 µM and 0.087 µM | 74.47 | 0.425 µM | 5.08 µM | 0.068 µM |  |
